From patent publication US11464770B2, “Anticancer pharmaceutical composition” (NATIONAL CANCER CENTER, priority 2016, dated 2022) come the findings set out here.

Read-outs that look alike come from different tables or passages of the source.

For orientation: IC50 means the concentration needed to halve the response being measured.

One assay deals with renal cancer cell lines. Put plainly: Cell based assay, cell viability (CellTiter-Glo), renal cancer cell lines. The following applies: Homo sapiens; ACHN cells. The essentials:
(§1)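 Seed cells after trypsin-EDTA treatment, hold 24 h at constant temperature, then add compound to a final 0 to 2 μM. Culture 72 h more and measure viability via ATP detection.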
For orientation: ATP-based viability assays read luminescence as a measure of living cells.

Another assay relates to liver cancer cell lines. Put plainly: Cell based assay, cell viability (CellTiter-Glo), liver cancer cell lines. The following applies: Homo sapiens, SK-HEP1; SK-HEP-1 cell line. The essentials: as §1
Assay [1] has as its system bladder cancer cell lines. The assay can be described thus: Cell based assay, cell viability (CellTiter-Glo), bladder cancer cell lines. As to conditions: 72 hours treatment, 0 to 2 μM, CellTiter-Glo. The essentials: as §1
Assay [2] concerns RT4: human urinary bladder transitional cell papilloma. Put plainly: Cell based assay, cytotoxicity in RT4 papilloma cells (selectivity). As to conditions: Homo sapiens, RT-4; RT4 cells.
Another assay relates to neuroblastoma cell lines. Put plainly: Cell based assay, cell viability (CellTiter-Glo), neuroblastoma cell lines. As to conditions: Homo sapiens; SH-SY5Y cell line. The essentials:
as §1

In assay [3] the test system is ovarian cancer cell lines. The assay can be described thus: Cell based assay, cell viability (CellTiter-Glo), ovarian cancer cell lines. As to conditions: Homo sapiens; OVCAR-3 cells. The essentials:
as §1

Setting [4] is: 253J cells, read-out: IC50, bladder cancer cell line 253J.
The mark [5] stands for this setting: 5637 cells, read-out: IC50, bladder cancer cell line 5637.
Setting [6] is: Homo sapiens, T-24, T24 cells, read-out: IC50, bladder cancer cell line T24.
Setting [7] is: Homo sapiens, J82 cells, read-out: IC50, bladder cancer cell line J82.
[8] abbreviates: Homo sapiens, UMUC3, UM-UC-3 cells, read-out: IC50, bladder cancer cell line UM-UC-3.
The mark [9] stands for this setting: Homo sapiens, KU-19-19 cells, read-out: IC50, bladder cancer cell line KU-19-19.
Where [10] appears, read: MBT-2 cells, read-out: IC50, bladder cancer cell line MBT-2.

Turning to `CC(=O)c1c([S+]([O-])Cc2ccc(C(F)(F)F)o2)[nH]c2c(F)ccc(F)c2c1=O` (centres unmarked) [Compound 81, 3-acetyl-5,8-difluoro-2-(((5-(trifluoromethyl)furan-2-yl)methyl)sulfinyl)quinolin-4(1H)-one], the IC50 (in the assay with renal cancer cell lines; in the assay on liver cancer cell lines; in assay [1] (setting [4]); in assay [1] (setting [5]); in assay [1] (setting [6]); in assay [1] (setting [7])) was more than 2000 nM throughout. For the same molecule, the values for the IC50 (in assay [2]; in the assay with neuroblastoma cell lines; in assay [3]) were more than 10000 nM, more than 2000 nM and more than 2000 nM, respectively.

As for `CC(=O)c1c([S+]([O-])Cc2cc(C)on2)[nH]c2c(F)ccc(F)c2c1=O` (centres unmarked) [Compound 82, 3-acetyl-5,8-difluoro-2-(((5-methylisoxazol-3-yl)methyl)sulfinyl)quinolin-4(1H)-one], the IC50 (with renal cancer cell lines; with liver cancer cell lines; in assay [1] (setting [4]); in assay [1] (setting [5]); in assay [1] (setting [6]); in assay [1] (setting [7])) was more than 2000 nM each time. In addition, the values for the half-inhibitory concentration (IC50) (in assay [2]; in the assay with neuroblastoma cell lines; in assay [3]) were more than 10000 nM, 1550 nM and more than 2000 nM, respectively.

Consider `CC(C)C(=O)c1c([S+]([O-])Cc2ccc(SC(F)(F)F)cc2)[nH]c2c(F)ccc(F)c2c1=O` (centres unmarked) [Compound 85, 5,8-difluoro-3-isobutyryl-2-((4-((trifluoromethyl)thio)benzyl)sulfinyl)quinolin-4(1H)-one], for which the IC50 (in the assay with renal cancer cell lines; in the assay on liver cancer cell lines; in assay [1] (setting [4]); in assay [1] (setting [5]); in assay [1] (setting [6]); in assay [1] (setting [7])) was more than 2000 nM throughout. Moreover, the IC50 in assay [2] is more than 10000 nM; in the assay on neuroblastoma cell lines it was more than 2000 nM; in assay [3] it was more than 2000 nM.

As for `O=C(c1ccccc1)c1c([S+]([O-])Cc2ccc(S(F)(F)(F)(F)F)cc2)[nH]c2c(F)ccc(F)c2c1=O` (centres unmarked) [Compound 87, 3-benzoyl-5,8-difluoro-2-((4-(pentafluoro--sulfanyl)benzyl)sulfinyl)quinolin-4(1H)-one], the IC50 (in the assay with renal cancer cell lines; in the assay with liver cancer cell lines; in assay [1] (setting [4]); in assay [1] (setting [5]); in assay [1] (setting [6]); in assay [1] (setting [7])) was more than 2000 nM in each case. For the same molecule, the concentration for half-maximal inhibition (IC50) in assay [2] is more than 10000 nM; in the assay on neuroblastoma cell lines, more than 2000 nM; in assay [3], more than 2000 nM.

Turning to `Cc1cc(C[S+]([O-])c2[nH]c3c(Cl)ccc(Cl)c3c(=O)c2C(=O)c2ccccc2)no1` (centres unmarked) [Compound 88, 3-benzoyl-5,8-dichloro-2-(((5-methylisoxazol-3-yl)methyl)sulfinyl)quinolin-4(1H)-one], the IC50 (with renal cancer cell lines; with liver cancer cell lines; in assay [1] (setting [4]); in assay [1] (setting [5]); in assay [1] (setting [6]); in assay [1] (setting [7])) was more than 2000 nM each time. Besides, the half-inhibitory concentration (IC50) is more than 10000 nM in assay [2], 1510 nM in the assay on neuroblastoma cell lines and more than 2000 nM in assay [3].

`CC(=O)c1c([S+]([O-])CN2C(=O)c3ccccc3C2=O)[nH]c2c(Cl)ccc(Cl)c2c1=O` (centres unmarked) [Compound 90, 2-(((3-acetyl-5,8-dichloro-4-oxo-1,4-dihydroquinolin-2-yl)sulfinyl)methyl)isoindoline-1,3-dione]: the half-inhibitory concentration (IC50) (in the assay with renal cancer cell lines; in the assay with liver cancer cell lines; in assay [1] (setting [4]); in assay [1] (setting [5]); in assay [1] (setting [6]); in assay [1] (setting [8])) was more than 2000 nM in each case. Also, the concentration for half-maximal inhibition (IC50) is more than 2000 nM in assay [1] (setting [7]); more than 2000 nM in assay [1] (setting [9]); more than 2000 nM in assay [1] (setting [10]); more than 10000 nM in assay [2]; more than 2000 nM in the assay on neuroblastoma cell lines; more than 2000 nM in assay [3].

For the molecule `COC(=O)c1ccc(C[S+]([O-])c2[nH]c3c(Cl)ccc(Cl)c3c(=O)c2C(C)=O)cc1` (centres unmarked) [Compound 91, methyl 4-(((3-acetyl-5,8-dichloro-4-oxo-1,4-dihydroquinolin-2-yl)sulfinyl)methyl)benzoate], the 50% inhibitory concentration (IC50) in the assay with renal cancer cell lines was more than 2000 nM; in the assay on liver cancer cell lines, 1720 nM; in assay [1] (setting [4]), more than 2000 nM; in assay [1] (setting [5]), more than 2000 nM; in assay [1] (setting [6]), more than 2000 nM; in assay [1] (setting [7]), more than 2000 nM. Moreover, the IC50 in assay [2] was more than 10000 nM; with neuroblastoma cell lines, 1220 nM; in assay [3] it was 1740 nM.

As to `COc1cccc2[nH]c(SCc3ccc(S(F)(F)(F)(F)F)cc3)c(C(C)=O)c(=O)c12` [Compound 92, 3-acetyl-5-methoxy-2-((4-(pentafluoro--sulfanyl)benzyl)thio)quinolin-4(1H)-one], the IC50 (in the assay on renal cancer cell lines; with liver cancer cell lines; in assay [1] (setting [4]); in assay [1] (setting [5]); in assay [1] (setting [6]); in assay [1] (setting [8])) was more than 2000 nM in each case. For the same molecule, the 50% inhibitory concentration (IC50) in assay [1] (setting [7]) was more than 2000 nM; in assay [1] (setting [9]), more than 2000 nM; in assay [1] (setting [10]) it was more than 2000 nM; in assay [2], more than 10000 nM; in the assay on neuroblastoma cell lines, more than 2000 nM; in assay [3], more than 2000 nM.

Regarding `COc1cccc2[nH]c([S+]([O-])Cc3ccc(S(F)(F)(F)(F)F)cc3)c(C(C)=O)c(=O)c12` (centres unmarked) [Compound 93, 3-acetyl-5-methoxy-2-((4-(pentafluoro--sulfanyl)benzyl)sulfinyl)quinolin-4(1H)-one], the half-inhibitory concentration (IC50) (with renal cancer cell lines; with liver cancer cell lines; in assay [1] (setting [4]); in assay [1] (setting [5]); in assay [1] (setting [6]); in assay [1] (setting [7])) was more than 2000 nM each time. Besides, the half-inhibitory concentration (IC50) in assay [2] was more than 10000 nM; in the assay on neuroblastoma cell lines, more than 2000 nM; in assay [3], more than 2000 nM.

Turning to `COc1cccc2[nH]c([S+]([O-])Cc3cc(C)on3)c(C(C)=O)c(=O)c12` (centres unmarked) [Compound 94, 3-acetyl-5-methoxy-2-(((5-methylisoxazol-3-yl)methyl)sulfinyl)quinolin-4(1H)-one], the IC50 (in the assay with renal cancer cell lines; in the assay on liver cancer cell lines; in assay [1] (setting [4]); in assay [1] (setting [5]); in assay [1] (setting [6]); in assay [1] (setting [7])) was more than 2000 nM each time. Further, the values for the IC50 (in assay [2]; with neuroblastoma cell lines; in assay [3]) were more than 10000 nM, 1760 nM and 1100 nM, respectively.

Consider `Cc1cc(C[S+]([O-])c2[nH]c3c(Br)ccc(Cl)c3c(=O)c2C(=O)C2CC2)no1` (centres unmarked) [Compound 96, 8-bromo-5-chloro-3-(cyclopropanecarbonyl)-2-(((5-methylisoxazol-3-yl)methyl)sulfinyl)quinolin-4(1H)-one], for which the IC50 was 1670 nM with renal cancer cell lines; 1960 nM in the assay with liver cancer cell lines; more than 2000 nM in assay [1] (setting [5]); 1660 nM in assay [1] (setting [6]); more than 2000 nM in assay [1] (setting [7]); more than 10000 nM in assay [2]. Further, the IC50 in the assay with neuroblastoma cell lines worked out at 770 nM; in assay [3] it was 750 nM.

For `Cc1cc(C[S+]([O-])c2[nH]c3c(Cl)ccc(Cl)c3c(=O)c2C(=O)C2CC2)no1` (centres unmarked) [Compound 97, 5,8-dichloro-3-(cyclopropanecarbonyl)-2-(((5-methylisoxazol-3-yl)methyl)sulfinyl)quinolin-4(1H)-one], the IC50 in the assay on renal cancer cell lines is 1330 nM; in the assay with liver cancer cell lines, 1070 nM; in assay [1] (setting [5]) it was 1910 nM; in assay [1] (setting [7]), more than 2000 nM; in assay [2] it was more than 10000 nM; in the assay with neuroblastoma cell lines, 600 nM. The IC50 in assay [3] stood at 590 nM.

Regarding `CC(=O)c1c([S+]([O-])Cc2ccc(C#N)s2)[nH]c2c(Br)ccc(Cl)c2c1=O` (centres unmarked) [Compound 98, 5-(((3-acetyl-8-bromo-5-chloro-4-oxo-1,4-dihydroquinolin-2-yl)sulfinyl)methyl)thiophene-2-carbonitrile], the half-maximal inhibitory concentration (IC50) in the assay with renal cancer cell lines was 1810 nM; with liver cancer cell lines, 1200 nM; in assay [1] (setting [5]), more than 2000 nM; in assay [1] (setting [6]), 1320 nM; in assay [1] (setting [7]) it was more than 2000 nM; in assay [2], more than 10000 nM. Besides, the IC50 came to 830 nM with neuroblastoma cell lines and 1230 nM in assay [3].

Take `CC(=O)c1c([S+]([O-])Cc2ccc(-n3cccn3)nc2)[nH]c2c(Br)ccc(Cl)c2c1=O` (centres unmarked) [Compound 99, 2-(((6-(1H-pyrazol-1-yl)pyridin-3-yl)methyl)sulfinyl)-3-acetyl-8-bromo-5-chloroquinolin-4(1H)-one]: the IC50 with renal cancer cell lines turned out to be 1210 nM; in the assay on liver cancer cell lines it was 1060 nM; in assay [1] (setting [4]), 800 nM; in assay [1] (setting [5]), 1620 nM; in assay [1] (setting [6]), 850 nM; in assay [1] (setting [7]), 1500 nM. Moreover, the concentration for half-maximal inhibition (IC50) in assay [2] was more than 10000 nM; with neuroblastoma cell lines, 450 nM; in assay [3], 630 nM.
